Tested on: 4T1.2 cells
Experiment: In vitro cytotoxicity, MTT assay, 4T1.2
Type: cell-based, mouse
Settings: 72 h
Method: 4T1.2 , PC3, Panc02, and B16 cells at 2000 cells/well were seeded in 96-well plates, respectively. […] After 3 days of incubation, 20 μL of 3-(4,5-dimethylthiazol-2-yl)-2,5-diphenyltetrazoliumbromide (MTT) in DPBS (5 mg/mL) was added to each well and cells were further incubated for 2 h. Medium was removed and MTT formazan crystals were solubilized by 100 μL of DMSO per well. Absorbance of each well was measured with a microplate reader at wavelength of 550 nm. Untreated wells were used as controls. Cell viability was calculated as [(ODtreated-ODblank)/(ODcontrol-ODblank)×100%].

Structure (SMILES): CC(=O)O[C@H]1C(=O)[C@@]2(C)[C@H]([C@H](OC(=O)c3ccccc3)[C@]3(O)C[C@H](OC(=O)[C@H](O)[C@@H](NC(=O)c4ccccc4)c4ccccc4)C(C)=C1C3(C)C)[C@]1(OC(C)=O)CO[C@@H]1C[C@@H]2O [PTX, paclitaxel]
- cytotoxicity (tumor cell growth inhibition): inhibited the tumor cell growth in a concentration-dependent manner
